# From patent US8258114B2, “Modulation of glucose-6-phosphatase translocase expression” (Isis Pharmaceuticals, Inc., priority 2004, dated 2012)
# Oligonucleotides are written 5' to 3', each unit as a sugar letter and its base; * is a phosphorothioate linkage, no mark a phosphodiester; rarer units and linkages stand in square brackets, end groups in braces. Plain capitals give the bases only. e = 2'-O-(2-methoxyethyl) (MOE); [5mC] = 5-methylcytosine; d = 2'-deoxy (DNA)
# Experiments:
# [1] = system: human glucose-6-phosphatase translocase mRNA; assay: Antisense inhibition of human glucose-6-phosphatase translocase mRNA in HepG2 cells (Table 11); format: cell-based; set-up: concentration or dose not given beside the values; details: LIPOFECTIN, mRNA by real-time PCR
# Method: The human hepatoblastoma cell line HepG2 was obtained from the American Type Culture Collection (Manassas, Va.). HepG2 cells were routinely cultured in Eagle's MEM supplemented with 10% fetal bovine serum, 1 mM non-essential amino acids, and 1 mM sodium pyruvate (Invitrogen Life Technologies, Carlsbad, Calif.). Cells were routinely passaged by trypsinization and dilution when they reached approximately 90% confluence. Multiwell culture plates are prepared for cell culture by coating with a 1:100 dilution of type 1 rat tail collagen (BD Biosciences, Bedford, Mass.) in phosphate-buffered saline. The collagen-containing plates were incubated at 37° C. for approximately 1 hour, after which the collagen was removed and the wells were washed twice with phosphate-buffered saline. Cells were seeded into 96-well plates (Falcon-Primaria #353872, BD Biosciences, Bedford, Mass.) at a density of approximately 8,000 cells/well for use in oligomeric compound transfection experiments.
# (§1) When cells reached 65-75% confluency, they were treated with oligonucleotide. Oligonucleotide was mixed with LIPOFECTIN™ Invitrogen Life Technologies, Carlsbad, Calif.) in Opti-MEM™-1 reduced serum medium (Invitrogen Life Technologies, Carlsbad, Calif.) to achieve the desired concentration of oligonucleotide and a LIPOFECTIN™ concentration of 2.5 or 3 μg/mL per 100 nM oligonucleotide. This transfection mixture was incubated at room temperature for approximately 0.5 hours. For cells grown in 96-well plates, wells were washed once with 100 μL OPTI-MEM™-1 and then treated with 130 μL of the transfection mixture. Cells grown in 24-well plates or other standard tissue culture plates are treated similarly, using appropriate volumes of medium and oligonucleotide. Cells are treated and data are obtained in duplicate or triplicate. After approximately 4-7 hours of treatment at 37° C., the medium containing the transfection mixture was replaced with fresh culture medium. Cells were harvested 16-24 hours after oligonucleotide treatment.
# (§2) Quantitation of glucose 6-phosphatase translocase mRNA levels was accomplished by real-time quantitative PCR using the ABI PRISM™ 7600, 7700, or 7900 Sequence Detection System (PE-Applied Biosystems, Foster City, Calif.) according to manufacturer's instructions.
# (§3) Prior to quantitative PCR analysis, primer-probe sets specific to the target gene being measured were evaluated for their ability to be “multiplexed” with a GAPDH amplification reaction. After isolation the RNA is subjected to sequential reverse transcriptase (RT) reaction and real-time PCR, both of which are performed in the same well. RT and PCR reagents were obtained from Invitrogen Life Technologies (Carlsbad, Calif.). […] The RT reaction was carried out by incubation for 30 minutes at 48° C. Following a 10 minute incubation at 95° C. to activate the PLATINUM® Taq, 40 cycles of a two-step PCR protocol were carried out: 95° C. for 15 seconds (denaturation) followed by 60° C. for 1.5 minutes (annealing/extension).
# (§4) Gene target quantities obtained by RT, real-time PCR were normalized using either the expression level of GAPDH, a gene whose expression is constant, or by quantifying total RNA using RiboGreen™ (Molecular Probes, Inc. Eugene, Oreg.). GAPDH expression was quantified by RT, real-time PCR, by being run simultaneously with the target, multiplexing, or separately. Total RNA was quantified using RiboGreen™ RNA quantification reagent (Molecular Probes, Inc. Eugene, Oreg.).
# A series of oligomeric compounds was designed to target different regions of human glucose-6-phosphatase translocase, using published sequences cited in Table 1. All compounds in Table 4 are chimeric oligonucleotides (“gapmers”) 20 nucleotides in length, composed of a central “gap” region consisting of 10 2′-deoxynucleotides, which is flanked on both sides (5′ and 3′) by five-nucleotide “wings”. The wings are composed of 2′-O-(2-methoxyethyl) nucleotides, also known as 2′-MOE nucleotides. […]
# [2] = system: mouse glucose-6-phosphatase translocase mRNA; assay: Antisense inhibition of mouse glucose-6-phosphatase translocase mRNA in primary mouse hepatocytes, 150 nM, LIPOFECTIN (Table 22); format: cell-based; details: real-time PCR
# Method: Primary mouse hepatocytes were prepared from CD-1 mice purchased from Charles River Labs. Primary mouse hepatocytes were routinely cultured in Hepatocyte Attachment Media supplemented with 10% fetal bovine serum (Invitrogen Life Technologies, Carlsbad, Calif.), 250 nM dexamethasone, and 10 nM bovine insulin (Sigma-Aldrich, St. Louis, Mo.). Cells were seeded into 96-well plates (Falcon-Primaria #353872, BD Biosciences, Bedford, Mass.) at a density of approximately 4,000-6,000 cells/well for use in oligomeric compound transfection experiments.
# as §1, §2, §3, §4
# A series of oligomeric compounds was designed to target different regions of mouse glucose-6-phosphatase translocase, using published sequences cited in Table 1. All compounds in Table 22 are chimeric oligonucleotides (“gapmers”) 20 nucleotides in length, composed of a central “gap” region consisting of 10 2′-deoxynucleotides, which is flanked on both sides (5′ and 3′) by five-nucleotide “wings”. The wings are composed of 2′-O-(2-methoxyethyl) nucleotides, also known as 2′-MOE nucleotides. The internucleoside (backbone) linkages are phosphorothioate throughout the oligonucleotide. All cytidine residues are 5-methylcytidines. The compounds were analyzed for their effect on gene target mRNA levels by quantitative real-time PCR as described in other examples herein, using the following primer-probe set designed to hybridize to mouse glucose-6-phosphatase translocase: • forward primer: […]
Sequence,% Inhib [1] [%],% Inhib of mouse glucose-6-phosphatase translocase mRNA levels [2] [%]
ACCACACACAGTGCCCCAGA (eA*e[5mC]*e[5mC]*eA*e[5mC]*dA*d[5mC]*dA*d[5mC]*dA*dG*dT*dG*d[5mC]*d[5mC]*e[5mC]*e[5mC]*eA*eG*eA; antisense) [ISIS 145670],42,45
ACCCAGAAGGCTGTGCTCCA (eA*e[5mC]*e[5mC]*e[5mC]*eA*dG*dA*dA*dG*dG*d[5mC]*dT*dG*dT*dG*e[5mC]*eT*e[5mC]*e[5mC]*eA; antisense) [ISIS 145702],74,45
AGGAAGAACTGGCCCCAGTC (eA*eG*eG*eA*eA*dG*dA*dA*d[5mC]*dT*dG*dG*d[5mC]*d[5mC]*d[5mC]*e[5mC]*eA*eG*eT*e[5mC]; antisense) [ISIS 145685],71,43
CAGGTTCATGCTGGTTGACA (e[5mC]*eA*eG*eG*eT*dT*d[5mC]*dA*dT*dG*d[5mC]*dT*dG*dG*dT*eT*eG*eA*e[5mC]*eA; antisense) [ISIS 145664],66,50
CGCCAGCTGTAGCTCTGGGC (e[5mC]*eG*e[5mC]*e[5mC]*eA*dG*d[5mC]*dT*dG*dT*dA*dG*d[5mC]*dT*d[5mC]*eT*eG*eG*eG*e[5mC]; antisense) [ISIS 145667],54,49
CTGCGCCAGCTGTAGCTCTG (e[5mC]*eT*eG*e[5mC]*eG*d[5mC]*d[5mC]*dA*dG*d[5mC]*dT*dG*dT*dA*dG*e[5mC]*eT*e[5mC]*eT*eG; antisense) [ISIS 145668],47,39
GCCCACCAAGTGCCAAACTG (eG*e[5mC]*e[5mC]*e[5mC]*eA*d[5mC]*d[5mC]*dA*dA*dG*dT*dG*d[5mC]*d[5mC]*dA*eA*eA*e[5mC]*eT*eG; antisense) [ISIS 145662],52,19
GGAGACAACCACACACAGTG (eG*eG*eA*eG*eA*d[5mC]*dA*dA*d[5mC]*d[5mC]*dA*d[5mC]*dA*d[5mC]*dA*e[5mC]*eA*eG*eT*eG; antisense) [ISIS 145671],39,25
GGATAAGGAAGAACTGGCCC (eG*eG*eA*eT*eA*dA*dG*dG*dA*dA*dG*dA*dA*d[5mC]*dT*eG*eG*e[5mC]*e[5mC]*e[5mC]; antisense) [ISIS 145686],32,26
GGCATGACAAAGGAGAAGGT (eG*eG*e[5mC]*eA*eT*dG*dA*d[5mC]*dA*dA*dA*dG*dG*dA*dG*eA*eA*eG*eG*eT; antisense) [ISIS 145657],43,45
GGTTCATTGTGGATGAGCAG (eG*eG*eT*eT*e[5mC]*dA*dT*dT*dG*dT*dG*dG*dA*dT*dG*eA*eG*e[5mC]*eA*eG; antisense) [ISIS 145673],47,4
TACCAGGATCCAGAGCTTGG (eT*eA*e[5mC]*e[5mC]*eA*dG*dG*dA*dT*d[5mC]*d[5mC]*dA*dG*dA*dG*e[5mC]*eT*eT*eG*eG; antisense) [ISIS 359535],58,–
TCACTGTTACCCGGAAGAGG (eT*e[5mC]*eA*e[5mC]*eT*dG*dT*dT*dA*d[5mC]*d[5mC]*d[5mC]*dG*dG*dA*eA*eG*eA*eG*eG; antisense) [ISIS 359532],48,–
TCCAGCCAGGTTCATGCTGG (eT*e[5mC]*e[5mC]*eA*eG*d[5mC]*d[5mC]*dA*dG*dG*dT*dT*d[5mC]*dA*dT*eG*e[5mC]*eT*eG*eG; antisense) [ISIS 359514],37,–
TCCCAATACCAGGATCCAGA (eT*e[5mC]*e[5mC]*e[5mC]*eA*dA*dT*dA*d[5mC]*d[5mC]*dA*dG*dG*dA*dT*e[5mC]*e[5mC]*eA*eG*eA; antisense) [ISIS 359536],55,–
TCCTTCAAGGAGCCCTTCTT (eT*e[5mC]*e[5mC]*eT*eT*d[5mC]*dA*dA*dG*dG*dA*dG*d[5mC]*d[5mC]*d[5mC]*eT*eT*e[5mC]*eT*eT; antisense) [ISIS 359525],56,–
TCCTTTCTCCTGGATAAGGA (eT*e[5mC]*e[5mC]*eT*eT*dT*d[5mC]*dT*d[5mC]*d[5mC]*dT*dG*dG*dA*dT*eA*eA*eG*eG*eA; antisense) [ISIS 359530],59,–
TCTCCTCCTTCAAGGAGCCC (eT*e[5mC]*eT*e[5mC]*e[5mC]*dT*d[5mC]*d[5mC]*dT*dT*d[5mC]*dA*dA*dG*dG*eA*eG*e[5mC]*e[5mC]*e[5mC]; antisense) [ISIS 359526],54,–
TCTCCTGGATAAGGAAGAAC (eT*e[5mC]*eT*e[5mC]*e[5mC]*dT*dG*dG*dA*dT*dA*dA*dG*dG*dA*eA*eG*eA*eA*e[5mC]; antisense) [ISIS 359529],15,–
TGGGCTGCCATGGTAGAAAA (eT*eG*eG*eG*e[5mC]*dT*dG*d[5mC]*d[5mC]*dA*dT*dG*dG*dT*dA*eG*eA*eA*eA*eA; antisense) [ISIS 145652],50,36
TGTAGTGCTTGGCAATGGTG (eT*eG*eT*eA*eG*dT*dG*d[5mC]*dT*dT*dG*dG*d[5mC]*dA*dA*eT*eG*eG*eT*eG; antisense) [ISIS 359544],7,–
TTACCCGGAAGAGGTACATG (eT*eT*eA*e[5mC]*e[5mC]*d[5mC]*dG*dG*dA*dA*dG*dA*dG*dG*dT*eA*e[5mC]*eA*eT*eG; antisense) [ISIS 359531],62,–
TTCAGCCACCCAGAAGGCTG (eT*eT*e[5mC]*eA*eG*d[5mC]*d[5mC]*dA*d[5mC]*d[5mC]*d[5mC]*dA*dG*dA*dA*eG*eG*e[5mC]*eT*eG; antisense) [ISIS 359546],39,–
TTGGCAATGGTGCTGAAGGG (eT*eT*eG*eG*e[5mC]*dA*dA*dT*dG*dG*dT*dG*d[5mC]*dT*dG*eA*eA*eG*eG*eG; antisense) [ISIS 145700],24,1
